The record followed here is patent publication US10675257B2, “Method of treating cancer with a combination of benzylideneguanidine derivatives and chemotherapeutic agent” (InFlectis BioScience, priority 2015, dated 2020).

The test system of the experiment is glioblastoma cell line GL261. As to the kind of experiment: GL261 glioblastoma tumor grafted on the chorio-allantoic membrane (CAM) of embryonated chicken eggs, tumor weight at E19. Type of experiment: in vivo, chicken embryo (Fertilized White Leghorn eggs). To be noted: for Tumor weight (mg) (N = 18) / Tumor weight (mg) (N = 7 to 12): after 10 days of treatment; for Effect on GL261 tumor size/weight on the upper CAM, in words: test compound (100 nM) together with temozolomide (500 microM), compared to temozolomide alone or compound alone; for Effect on GL261 tumor size, in words: test compound alone (100 nM). The protocol:
Fertilized White Leghorn eggs were incubated at 38° C. with 60% relative humidity for 9 days. At this time (E9), the chorio-allantoic membrane (CAM) was dropped by drilling a small hole through the eggshell into the air sac and a 1 cm^2 window was cut in the eggshell above the CAM.
Cultured glioblastoma cell line GL261 were detached by trypsinization, washed with complete medium, labeled and suspended in serum free DMEM. An inoculum of GL261 cells was added onto the CAM of each egg. Eggs were then randomized in 6 groups.
They were then treated during 10 days, every two days (E10, E12, E14, E16, E18), by dropping 100 μl of test compound (100 nM), Temozolomide (500 microM), test compound (100 nM) and Temozolomide (500 microM), or Control (0.02% DMSO) onto the tumor.
At day E19 the upper portion of the CAM was removed, transferred in PBS and the tumors were then carefully cut away from normal CAM tissue. Tumors were then weighted. In parallel, a 1 cm^2 portion of the lower CAM was collected to evaluate the number of nodules, containing expressing cells. The fluorescent nodules were visualized in situ using whole mounts of fixed tissue and flattened between a hollow glass slide and a thick coverslip. In order to number the nodules, a thorough and complete visual scan of the piece of the lower CAM was done using fluorescent microscope.
Glioblastoma cell line GL261 was grafted on the chorio-allantoic membrane (CAM) of Fertilized White Leghorn eggs. The tumors were treated every two days with test compound ([…]), temolozomide (500 microM) or test compound (100 nM) and temozolomide (500 microM). For the control, the tumors were treated with 0.02% DMSO. Between seven (7) to eighteen (18) eggs were treated for each condition.

Where [1] appears, read: combination test compound/Temozolomide 100 nM/500microM, control 120.5.
Setting [2] is: combination test compound/Temozolomide 100 nM/500 μM, control 106.65.
The mark [3] stands for this setting: test compound alone 100 nM, control (0.02% DMSO) 106.65.

Entries after “also recorded” stand apart in the source; their conditions may differ. Structures can show the parent of a compound that is named as a salt.

With `NC(N)=N/N=C/c1c(Cl)cccc1Cl` [Compound 1, 2-(2,6-dichlorobenzylidene)hydrazine carboximidamide, reference compound], the “Tumor weight (mg) (N = 18)” value turned out to be 68.3 mg under setting [1] and 115 mg (test compound alone 100 nM, control (0.02% DMSO) 120.5).
With `CC(=O)O.N=C(N)N/N=C/c1ccncc1Cl` [Compound 6, 2-[(3-chloropyridin-4-yl)methylidene]hydrazinecarboximidamide Acetate], the “Tumor weight (mg) (N = 7 to 12)” value worked out at 70.45 mg under setting [2] and 107.76 mg under setting [3]. For the same molecule, the “Effect on GL261 tumor size/weight on the upper CAM, in words” value (Acetate) is recorded as “synergistic reduction of GL261 tumor weight; also recorded: synergistic effect to reduce the tumor size”. Besides, the “Effect on GL261 tumor size, in words” value (Acetate) is reported as “no effect on tumor size reduction; also recorded: no effect to reduce the tumor size”.
With `CC(C)CCO/N=C(\N)N/N=C/c1ccccc1Cl` [Compound 11, Formate Salt], the “Effect on GL261 tumor size, in words” value is given as “reduces the tumor size”. In addition, under setting [2], the “Tumor weight (mg) (N = 7 to 12)” value turned out to be 67.29 mg. The “Effect on GL261 tumor size/weight on the upper CAM, in words” value (Formate Salt) is recorded as “synergistic reduction of GL261 tumor weight; also recorded: synergistic effect to reduce the tumor size”. Further, the “Tumor weight (mg) (N = 7 to 12)” value under setting [3] came to 87.63 mg.
For the molecule `C=CCO/N=C(\N)N/N=C/c1ccccc1Cl` [Compound 15, 2-(2-chlorobenzylidene)-N′-(prop-2-en-1-yloxy)hydrazine Carboximidamide], the “Effect on GL261 tumor size/weight on the upper CAM, in words” value is listed as “synergistic reduction of GL261 tumor weight; also recorded: synergistic effect to reduce the tumor size” and the “Effect on GL261 tumor size, in words” value is listed as “reduces the tumor size”. For the same molecule, the “Tumor weight (mg) (N = 7 to 12)” value under setting [2] stood at 40.66 mg. The “Tumor weight (mg) (N = 7 to 12)” value under setting [3] is on record as 63.44 mg.
As for `N/C(=N\OCCO)N/N=C/c1ccccc1Cl` [Compound 16, 2-(2-chlorobenzylidene)-N′-(2-hydroxyethoxy)hydrazinecarboximidamide], the “Effect on GL261 tumor size/weight on the upper CAM, in words” value is listed as “further reduction of GL261 tumor weight; also recorded: further reduce the tumor size” and the “Effect on GL261 tumor size, in words” value was “display anti-glioma activity by reducing the tumor size”. Under setting [2], the “Tumor weight (mg) (N = 7 to 12)” value worked out at 48.11 mg.
As for `CCO/N=C(\N)N/N=C/c1ccccc1Cl` [Compound 20, 2-(2-chlorobenzylidene)-N′-ethoxyhydrazinecarboximidamide], the “Effect on GL261 tumor size/weight on the upper CAM, in words” value is “further reduction of GL261 tumor weight; also recorded: further reduce the tumor size” and the “Effect on GL261 tumor size, in words” value was “display anti-glioma activity by reducing the tumor size”. Besides, the “Tumor weight (mg) (N = 7 to 12)” value under setting [2] is recorded as 73.51 mg.
`CCCO/N=C(\N)N/N=C/c1ccccc1Cl` [Compound 22, 2-(2-chlorobenzylidene)-N-propoxyhydrazinecarboximidamide]: the “Effect on GL261 tumor size/weight on the upper CAM, in words” value is on record as “synergistic reduction of GL261 tumor weight; also recorded: synergistic effect to reduce the tumor size”. Also, the “Tumor weight (mg) (N = 18)” value under setting [1] is given as 48.4 mg.
Regarding `CCSCCO/N=C(\N)N/N=C/c1ccccc1Cl` [Compound 25, 2-(2-chlorobenzylidene)-N-[2-(ethylsulfanyl)ethoxy]hydrazinecarboximidamide], under setting [2], the “Tumor weight (mg) (N = 7 to 12)” value amounted to 43.6 mg.
As to `CCO/N=C(\N)N/N=C/c1ccncc1Cl` [Compound 26, 2-[(3-chloropyridin-4-yl)methylidene]-N-ethoxyhydrazinecarboximidamide], the “Effect on GL261 tumor size/weight on the upper CAM, in words” value is “further reduction of GL261 tumor weight; also recorded: further reduce the tumor size” and the “Effect on GL261 tumor size, in words” value is “display anti-glioma activity by reducing the tumor size”. The “Tumor weight (mg) (N = 7 to 12)” value under setting [2] is reported as 66.23 mg.
Consider `CCCCO/N=C(\N)N/N=C/c1ccccc1Cl` [Compound 28, N′-butoxy-2-(2-chlorobenzylidene)hydrazinecarboximidamide], for which the “Effect on GL261 tumor size/weight on the upper CAM, in words” value is on record as “further reduction of GL261 tumor weight; also recorded: further reduce the tumor size” and the “Effect on GL261 tumor size, in words” value is listed as “display anti-glioma activity by reducing the tumor size”. The “Tumor weight (mg) (N = 7 to 12)” value under setting [2] stood at 51.33 mg.
The corresponding values for `CCCO/N=C(\N)N/N=C/c1c(F)cccc1Cl` [Compound 29, 2-(2-chloro-6-fluorobenzylidene)-N′-propoxyhydrazinecarboximidamide] are “further reduction of GL261 tumor weight; also recorded: further reduce the tumor size”, “display anti-glioma activity by reducing the tumor size” and 54.13 mg.
Take `CCCO/N=C(\N)N/N=C/c1ccncc1Cl` [Compound 33, 2-[(3-chloropyridin-4-yl)methylidene]-N-propoxyhydrazinecarboximidamide]: the “Effect on GL261 tumor size/weight on the upper CAM, in words” value is “further reduction of GL261 tumor weight; also recorded: further reduce the tumor size” and the “Effect on GL261 tumor size, in words” value is reported as “display anti-glioma activity by reducing the tumor size”. For the same molecule, the “Tumor weight (mg) (N = 7 to 12)” value under setting [2] stood at 62.42 mg.
Consider `Cn1nnc2c(C(N)=O)ncn2c1=O` [Temozolomide, 3,4-dihydro-3-methyl-4-oxoimidazo [5,1-d]-as-tetazine-8-carboxamide, reference compound], for which, where the note is “Temozolomide alone 500 μM, control (0.02% DMSO) 106.65”, the “Tumor weight (mg) (N = 7 to 12)” value stood at 90.17 mg. The “Tumor weight (mg) (N = 18)” value (Temozolomide alone 500microM, control (0.02% DMSO) 120.5) is 86.3 mg.
